This is an account of results in patent publication US20230117034A1, “PYRAZOLOTRIAZINES” (Bayer Aktiengesellschaft, priority 2019, published 2023).

The test system of assay [1] is BRCA1 mRNA expression in MDA-MB-231 cells. Kind of assay: qRT-PCR assay: BRCA1 mRNA expression in MDA-MB-231. Format: cell-based, human. The following applies: Homo sapiens, MDA-MB-231, Inhibition of BRCA1 mRNA expression in MDA-MB-231 cells; median; read-out: RTqPCR-MDA-MB-231, IC50, BRCA1 (median). In a few lines: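 Human breast cancer cells, 200,000/well, were treated with test agents for 24 h without interruption after a 24 h settling period. Gene expression came from qPCR on cDNA made from 600 ng RNA, relative to GAPDH.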

The test system of assay [2] is MDA-MB-231, human breast cancer cells. In words: Proliferation assay MDA-MB-231 (crystal violet, 4 days). Format: cell-based. To be noted: Homo sapiens, MDA-MB-231, 96 h, MDA-MB-231 cells, median, read-out: Prolif-MDA MB-231, IC50-[mol/l] (median). The method in brief: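 Crystal violet proliferation read-out after 4 days of compound exposure (0.01-10 µmol/L; solvent 0.1% DMSO). Extinction at 595 nm, set between zero-point (0%) and vehicle (100%), fitted with 4 parameters to give IC50.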

Another assay has as its target T1, CDK9/CycT1 (Homo sapiens, UniProt P50750).
T1 construct: Recombinant full-length His-tagged human CDK9 and CycT1; purchased Life Technologies PV4131; host or cells: insect cells
Kind of assay: CDK9/CycT1 high ATP kinase assay (TR-FRET, 2 mM ATP). In kind it is biochemical. The following applies: 2 mM ATP (high ATP); median; read-out: CDK9/CyclinT1, 2 mM ATP (high ATP), IC50 (median). The method in brief:
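Full-length His-tagged human CDK9/CycT1 (insect cell, ~0.5 μg/mL) preincubated 15 min at 22 °C with compound in Tris pH 8.0, MgCl2, DTT buffer before reaction with biotinylated peptide substrate at high ATP (2 mM).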

Some results are limits rather than exact numbers.

T1 sequence (P50750 whole entry): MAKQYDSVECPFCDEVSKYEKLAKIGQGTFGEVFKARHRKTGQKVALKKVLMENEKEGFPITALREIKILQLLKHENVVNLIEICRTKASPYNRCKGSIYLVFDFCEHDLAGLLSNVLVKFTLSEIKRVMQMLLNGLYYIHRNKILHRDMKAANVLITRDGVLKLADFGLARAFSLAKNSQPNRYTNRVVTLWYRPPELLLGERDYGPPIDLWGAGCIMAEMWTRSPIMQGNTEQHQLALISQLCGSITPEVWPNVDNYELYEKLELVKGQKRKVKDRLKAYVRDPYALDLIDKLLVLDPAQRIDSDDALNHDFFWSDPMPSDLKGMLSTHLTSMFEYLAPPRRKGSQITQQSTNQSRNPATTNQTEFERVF
T1 sequence (O60563 whole entry partner): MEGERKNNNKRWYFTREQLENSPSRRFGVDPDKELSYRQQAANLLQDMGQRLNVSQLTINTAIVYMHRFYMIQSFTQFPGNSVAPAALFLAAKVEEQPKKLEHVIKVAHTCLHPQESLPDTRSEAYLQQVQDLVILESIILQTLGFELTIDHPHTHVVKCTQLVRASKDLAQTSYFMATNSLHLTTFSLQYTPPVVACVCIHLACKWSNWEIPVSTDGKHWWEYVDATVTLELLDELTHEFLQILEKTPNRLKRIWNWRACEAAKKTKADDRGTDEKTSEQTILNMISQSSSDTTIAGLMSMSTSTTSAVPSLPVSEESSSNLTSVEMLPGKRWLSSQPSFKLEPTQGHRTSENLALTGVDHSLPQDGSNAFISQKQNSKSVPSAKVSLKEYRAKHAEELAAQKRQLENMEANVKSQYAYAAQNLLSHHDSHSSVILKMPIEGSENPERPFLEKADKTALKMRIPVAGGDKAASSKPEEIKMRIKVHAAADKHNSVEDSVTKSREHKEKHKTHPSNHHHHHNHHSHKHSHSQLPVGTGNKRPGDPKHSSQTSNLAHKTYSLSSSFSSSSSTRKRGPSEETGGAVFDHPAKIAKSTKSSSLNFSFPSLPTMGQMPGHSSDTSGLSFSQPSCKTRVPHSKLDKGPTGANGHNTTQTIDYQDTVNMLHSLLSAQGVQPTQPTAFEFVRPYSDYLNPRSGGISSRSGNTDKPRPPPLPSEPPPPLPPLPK

For `Fc1ccc2[nH]c(CNc3nc(N4CCOCC4)nc4c(C5CC5(F)F)cnn34)nc2c1F` (stereo not drawn) [Example 278, N-[(4,5-difluoro-1H-benzimidazol-2-yl)methyl]-8-(2,2-difluorocyclopropyl)-2-(morpholin-4-yl)pyrazolo[1,5-a][1,3,5]triazin-4-amine], the IC50 is 3.89 nM in assay [1], 17.4 nM in assay [2] and above 20000 nM on CDK9/CycT1.
With `CC1(N)CCN(c2nc(NCc3nc4ccccc4[nH]3)n3ncc(Br)c3n2)CC1` [Example 290, 2-(4-amino-4-methylpiperidin-1-yl)-N-[(1H-benzimidazol-2-yl)methyl]-8-bromopyrazolo[1,5-a][1,3,5]triazin-4-amine], the IC50 in assay [1] is 17.6 nM; in assay [2], 64.9 nM; on CDK9/CycT1 it was above 20000 nM.
For `Clc1cc2nc(CNc3nc(N4CCOCC4)nc4c(C5CC5)cnn34)[nH]c2cc1Cl` [Example 301, 8-cyclopropyl-N-[(5,6-dichloro-1H-benzimidazol-2-yl)methyl]-2-(morpholin-4-yl)pyrazolo[1,5-a][1,3,5]triazin-4-amine], the IC50 in assay [1] is 6.73 nM; in assay [2], 7.75 nM; at CDK9/CycT1, above 20000 nM.
Turning to `CN(CC(C)(C)O)c1nc(NCc2nc3cc(F)c(Cl)cc3[nH]2)n2ncc(C3CC3)c2n1` [Example 317, 1-[(4-{[(6-chloro-5-fluoro-1H-benzimidazol-2-yl)methyl]amino}-8-cyclopropylpyrazolo[1,5-a][1,3,5]triazin-2-yl)(methyl)amino]-2-methylpropan-2-ol], the values for the IC50 (in assay [1]; in assay [2]; on CDK9/CycT1) were 6.9 nM, 5.21 nM and above 20000 nM, respectively.
Turning to `Cc1ccnc2[nH]c(CNc3nc(N4CCOCC4)nc4c(Br)cnn34)nc12` [Example 20, 8-bromo-N-[(7-methyl-3H-imidazo[4,5-b]pyridin-2-yl)methyl]-2-(morpholin-4-yl)pyrazolo[1,5-a][1,3,5]triazin-4-amine], the figures for the IC50 (in assay [1]; in assay [2]; on CDK9/CycT1) were 6.81 nM, 31 nM and 9220 nM, respectively.
With `N[C@@H]1CN(c2nc(NCc3nc4ccccc4[nH]3)n3ncc(Br)c3n2)CC12CC2` [Example 251, 2-[(7S)-7-amino-5-azaspiro[2.4]heptan-5-yl]-N-[(1H-benzimidazol-2-yl)methyl]-8-bromopyrazolo[1,5-a][1,3,5]triazin-4-amine], the IC50 in assay [1] was 1.49 nM; in assay [2] it was 2.73 nM; at CDK9/CycT1, above 20000 nM.
As to `CN1CCN(c2nc(NCc3nc4c(F)cccc4[nH]3)n3ncc(C(F)(F)F)c3n2)CC1` [Example 293, N-[(4-fluoro-1H-benzimidazol-2-yl)methyl]-2-(4-methylpiperazin-1-yl)-8-(trifluoromethyl)pyrazolo[1,5-a][1,3,5]triazin-4-amine], the figures for the IC50 (in assay [1]; in assay [2]; on CDK9/CycT1) were 5.68 nM, 36.1 nM and above 20000 nM, respectively.
Regarding `CN(CC1CC1)c1nc(NCc2nc3ccccc3[nH]2)n2ncc(Br)c2n1` [Example 287, N^4-[(1H-benzimidazol-2-yl)methyl]-8-bromo-N^2-(cyclopropylmethyl)-N^2-methylpyrazolo[1,5-a][1,3,5]triazine-2,4-diamine], the IC50 in assay [1] is 20.8 nM; in assay [2], 34.3 nM; on CDK9/CycT1 it was above 20000 nM.
Turning to `Brc1cnn2c(NCc3ncc(-c4ccccc4)[nH]3)nc(N3CCOCC3)nc12` [Example 23, 8-bromo-2-(morpholin-4-yl)-N-[(5-phenyl-1H-imidazol-2-yl)methyl]pyrazolo[1,5-a][1,3,5]triazin-4-amine], the values for the IC50 (in assay [1]; in assay [2]; on CDK9/CycT1) were 3.83 nM, 33.9 nM and 3240 nM, respectively.
Regarding `CN1CCN(c2nc(NCc3nc4ccccc4[nH]3)n3ncc(C(F)(F)F)c3n2)CC1` [Example 297, N-[(1H-benzimidazol-2-yl)methyl]-2-(4-methylpiperazin-1-yl)-8-(trifluoromethyl)pyrazolo[1,5-a][1,3,5]triazin-4-amine], the IC50 in assay [1] was 51.5 nM; in assay [2], 77.7 nM; on CDK9/CycT1, above 20000 nM.
For `COc1cccc2[nH]c(CNc3nc(N4CCOCC4)nc4c(CC(F)(F)F)cnn34)nc12` [Example 277, N-[(4-methoxy-1H-benzimidazol-2-yl)methyl]-2-(morpholin-4-yl)-8-(2,2,2-trifluoroethyl)pyrazolo[1,5-a][1,3,5]triazin-4-amine] the same measures were 5.42 nM, 40.2 nM and above 20000 nM.
`N[C@H]1CN(c2nc(NCc3nc4ccccc4[nH]3)n3ncc(Br)c3n2)CC12CC2` [Example 259, 2-[(7R)-7-amino-5-azaspiro[2.4]heptan-5-yl]-N-[(1H-benzimidazol-2-yl)methyl]-8-bromopyrazolo[1,5-a][1,3,5]triazin-4-amine]: the IC50 turned out to be 11.4 nM in assay [1], 31.9 nM in assay [2] and 7370 nM on CDK9/CycT1.
For `CNC1CCN(c2nc(NCc3nc4ccccc4[nH]3)n3ncc(Br)c3n2)CC1` [Example 272, N-[(1H-benzimidazol-2-yl)methyl]-8-bromo-2-[4-(methylamino)piperidin-1-yl]pyrazolo[1,5-a][1,3,5]triazin-4-amine], the IC50 is 7.91 nM in assay [1], 27.7 nM in assay [2] and above 20000 nM on CDK9/CycT1.
